From paper PMC11231610, “Fatty acid binding to the human transport proteins FABP3, FABP4, and FABP5 from a Ligand’s perspective” (The Journal of Biological Chemistry, 2024)
Where “and” joins values, the source holds several entries; their conditions need not be identical. Equal entries are not always repeated. Where two headings read alike, the source gives them in different places.

Assays:
Type in all cases: binding
[1] = biological target: T1, FABP5 (Homo sapiens, UniProt Q01469); assay: CW EPR spectra and spectral simulations of spin-probed fatty acids with FABP5; details: for increase of intermediately bound component: FABPx/16-DSA 20/20 μM
T1 construct: purchased Sigma Aldrich
T1 sequence (Q01469 whole entry): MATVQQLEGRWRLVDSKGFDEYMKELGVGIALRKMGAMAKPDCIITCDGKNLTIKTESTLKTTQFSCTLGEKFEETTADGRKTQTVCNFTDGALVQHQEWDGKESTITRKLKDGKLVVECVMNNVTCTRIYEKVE
Description: (§1) For a more in-depth view of the binding mechanism, CW EPR spectra of 5/16-DSA with concentration series of the FABPs were measured and simulated. […] Equal concentrations of 20 μM of each spin probe (5- and 16-DSA) were mixed with FABP concentrations of 0 to 200 μM, increasing the resulting ligand/protein ratio in the samples stepwise from 1/0 to 1/10.
(§2) To analyze the spectra quantitatively, subsequent EPR spectral simulations were performed (Fig. 2, B and C). […] For a better understanding, a first interpretation of these components is given at this point. The rotational dynamics are thought to be indirectly proportional to the strength of intermolecular interactions between fatty acid and FABP. Therefore, they are indicative of the binding state of the fatty acids. Higher rotational correlation times signalize lower ligand dynamics and stronger interactions with the protein. […] This exchange broadening can only occur if radicals are located very close distance each other, colliding with each other, leading to partial overlap of spin-bearing orbitals.
(§3) The fractions (weights) Φx of the spectral components were extracted from the EPR simulations of the concentration series and were used to calculate the concentrations of all components with Eq (1). in Figure 3. This was performed for the intermediately and strongly bound components, as well as for their sum, called totally bound 5/16-DSA, to construct binding curves for all FABPs and spin probes. […] Different fit functions were applied to the curves for a better qualitative and quantitative analysis.

[2] = biological target: T1, FABP5; assay: DHA displacement of 16-DSA from FABP5 by CW EPR; details: FABP5/16-DSA/DHA 20/20/0, before DHA addition
Text: In a second addition during revision, we were curious about the question of whether our model ligands that bind with medium affinity to the FABP binding pocket will be displaced when we add a native ligand with higher affinity and whether we could detect this displacement with our CW EPR setup. The native ligand DHA was chosen for this displacement analysis since it is well-known to bind with high affinity to FABP5 ([26]). DHA was pre-dissolved in ethanol, diluted into buffer, and mixed with FABP5 and 16-DSA. […] Samples with FABP5/16-DSA/DHA ratios 20/20/0, 20/20/5, 20/20/10, 20/20/20, 20/20/50, and 20/20/100 were prepared with 5 min incubation time in between 16-DSA and DHA addition. […] We assume that the well-known high binding affinity of DHA refers to the state of strong binding within the pocket. […] Instead, a dynamic exchange of ligands seems to occur, as we consistently observe it with albumins from different species. However, this part opens the way to other future competitive binding assays via CW EPR spectroscopy, e.g., with pharmaceuticals that bind to FABPs.
CW EPR spectroscopic measurements were performed at X-band frequencies (∼9.4 GHz) with a benchtop spectrometer Magnettech MS-5000 (Freiberg Instruments GmbH, now Bruker Biospin). The samples were prepared in low-binding PCR tubes (250 μl). Protein and 5/16-DSA solutions were mixed with HEPES/NaCl buffer at pH 7.5, to obtain samples with a constant 5/16-DSA concentration of 20 μM and varying FABP concentrations of 200, 100, 50, 35, 25, 20, 15, 10 and 5 μM. After an incubation time of 20 min, the samples were transferred into glass capillaries, which were sealed with ‘Critoseal’. At first, solutions with 20 μM of 5/16-DSA were measured as references at 37 °C. The concentration series of FABP with 20 μM 5/16-DSA were measured at 37 °C, directly after preparation. Afterward, the sample capillaries were stored at 4 °C, and subsequent temperature-dependent measurements were performed. […]

[3] = biological target: T2, FABP3 (Homo sapiens, UniProt P05413); assay: CW EPR spectra and spectral simulations of spin-probed fatty acids with FABP3; details: for increase of intermediately bound component: FABPx/16-DSA 20/20 μM
T2 construct: purchased Sigma Aldrich
T2 sequence (P05413 whole entry): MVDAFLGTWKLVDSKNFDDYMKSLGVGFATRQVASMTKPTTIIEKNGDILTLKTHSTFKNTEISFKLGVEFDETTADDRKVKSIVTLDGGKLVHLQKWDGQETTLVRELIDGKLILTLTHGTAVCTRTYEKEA
Description: as §1, §2, §3

[4] = biological target: T3, FABP4 (Homo sapiens, UniProt P15090); assay: CW EPR spectra and spectral simulations of spin-probed fatty acids with FABP4
T3 construct: purchased Sigma Aldrich
T3 sequence (P15090 whole entry): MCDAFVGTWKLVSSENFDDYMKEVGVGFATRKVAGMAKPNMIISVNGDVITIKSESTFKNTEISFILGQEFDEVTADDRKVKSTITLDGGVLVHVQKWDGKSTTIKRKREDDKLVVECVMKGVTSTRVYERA
Description: as §1, §2, §3

[5] = 37 °C, 20 μM spin probe, EPR binding curve, read-out: KD,T,75′ (fit), apparent KD read at 75% totally bound
[6] = FABP5/16-DSA 100/100 μM/μM, 37 °C
[7] = changing the buffer from HEPES to TRIS, pH 7.5
[8] = lowering the pH from 7.5 to 6 in HEPES/NaCl
[9] = Hill fit of EPR binding curve, totally bound, 37 °C
[10] = Hill fit, totally bound (T), y = bound 5/16-DSA
[11] = read-out: KD,T,50′ (fit), apparent KD read at 50% totally bound, 37 °C, 20 μM spin probe, EPR binding curve
[12] = FABP3/16-DSA 100/100 μM/μM, 37 °C

Kd ([1]; 37 °C, 20 μM FABP5, 20 μM spin probe, read-out: KD,T,20μM (calculated, totally bound)): 2.14 ± 0.7 µM | Kd [1, 5]: 22 ± 0.2 µM | Kd ([1]; 37 °C, 50 μM FABP5, 20 μM spin probe, read-out: KD,T,50μM (calculated, totally bound)): 5.87 ± 1.21 µM | ΔGF−I,100μM (free to intermediately bound) ([1]; 37 °C, 100 μM FABP5): -6.38 ± 0.072 kcal/mol | ΔGF−S,100μM (free to strongly bound) ([1]; 37 °C, 100 μM FABP5): -4.64 ± 0.024 kcal/mol | ΔGF−T,100μM (free to totally bound) ([1]; 37 °C, 100 μM FABP5): -7.17 ± 0.19 kcal/mol | ΔGI−S,100μM (intermediately to strongly bound) ([1]; 37 °C, 100 μM FABP5): 0.956 ± 0.024 kcal/mol | Kd ([1]; 37 °C, 100 μM FABP5, 20 μM spin probe, read-out: KD,T,100μM (calculated, totally bound)): 8.9 ± 0.34 µM | aiso, component (1) free ([1]; 37 °C, EPR simulation): 44.1 MHz | aiso, component (2) intermediately bound ([1]; 37 °C, EPR simulation): 37–42.3 MHz | aiso, component (3) strongly bound ([1]; 37 °C, EPR simulation): 37 MHz | τc,iso, component (1) free ([1]; 37 °C, EPR simulation): 0.05–0.07 ns | τc,iso, component (2) intermediately bound ([1]; 37 °C, EPR simulation): 5.7 ns | τc,iso, component (3) strongly bound ([1]; 37 °C, EPR simulation): 22.2 ns | totally bound fraction ([1]; 37 °C, high FABP5 excess): 93% | intermediately bound proportion ([1]; FABP5/16-DSA 10/10 μM/μM, 37 °C): 61.5% | intermediately bound proportion ([1]; FABP5/16-DSA 20/20 μM/μM, 37 °C): 72.2% | intermediately bound proportion ([1]; FABP5/16-DSA 50/50 μM/μM, 37 °C): 80.8% | intermediately bound proportion [1, 6]: 81% | strongly bound component [1, 6]: 9.5% | increase of intermediately bound component [1, 7]: 6 to 8% | increase of intermediately bound component [1, 8]: 16 to 18% | Hill coefficient n [1, 9]: 0.852 ± 0.04 and < 1 | Hill fit k ([1]; Hill fit, totally bound (T), x = c(FABP5)/c(5/16-DSA)): 0.315 ± 0.011 | Hill fit Vmax [1, 10]: 98.288 ± 1.318 | Kd [1, 11]: 7.6 ± 0.1 µM | bound 16-DSA [2]: 72% | Kd ([3]; 37 °C, 20 μM FABP3, 20 μM spin probe, read-out: KD,T,20μM (calculated, totally bound)): 1.08 ± 0.55 µM | Kd [3, 5]: 18 ± 0.2 µM | Kd ([3]; 37 °C, 50 μM FABP3, 20 μM spin probe, read-out: KD,T,50μM (calculated, totally bound)): 0.81 µM | ΔGF−I,100μM (free to intermediately bound) ([3]; 37 °C, 100 μM FABP3): -8.05 ± 0.598 kcal/mol | ΔGF−S,100μM (free to strongly bound) ([3]; 37 °C, 100 μM FABP3): -3.13 ± 0.024 kcal/mol | ΔGF−T,100μM (free to totally bound) ([3]; 37 °C, 100 μM FABP3): -8.96 ± 1.29 kcal/mol | ΔGI−S,100μM (intermediately to strongly bound) ([3]; 37 °C, 100 μM FABP3): 2.53 ± 0.048 kcal/mol | Kd ([3]; 37 °C, 100 μM FABP3, 20 μM spin probe, read-out: KD,T,100μM (calculated, totally bound)): 0.48 µM | aiso, component (1) free ([3]; 37 °C, EPR simulation): 44.1 MHz | aiso, component (2) intermediately bound ([3]; 37 °C, EPR simulation): 41.6–42.6 MHz | aiso, component (3) strongly bound ([3]; 37 °C, EPR simulation): 38.7 MHz | τc,iso, component (1) free ([3]; 37 °C, EPR simulation): 0.04–0.1 ns | τc,iso, component (2) intermediately bound ([3]; 37 °C, EPR simulation): 5.2–8.4 ns | τc,iso, component (3) strongly bound ([3]; 37 °C, EPR simulation): 19.1–22.2 ns | intermediately bound proportion ([3]; FABP3/16-DSA 10/10 μM/μM, 37 °C): 67.1% | intermediately bound proportion ([3]; FABP3/16-DSA 20/20 μM/μM, 37 °C): 72.6% | intermediately bound proportion ([3]; FABP3/16-DSA 50/50 μM/μM, 37 °C): 85.9% | intermediately bound proportion [3, 12]: 90.3% | strongly bound component [3, 12]: 2.8% | increase of intermediately bound component [3, 7]: 6 to 8% | increase of intermediately bound component [3, 8]: 16 to 18% | Hill fit k ([3]; Hill fit, totally bound (T), x = c(FABP3)/c(5/16-DSA)): 0.535 ± 0.005 | Hill fit Vmax [3, 10]: 100.399 ± 0.459 | Kd [3, 11]: 10.6 ± 0.1 µM | Kd ([4]; 37 °C, 20 μM FABP4, 20 μM spin probe, read-out: KD,T,20μM (calculated, totally bound)): 10 ± 0.75 µM | Kd [4, 5]: 43.6 ± 0.4 µM | Kd ([4]; 37 °C, 50 μM FABP4, 20 μM spin probe, read-out: KD,T,50μM (calculated, totally bound)): 8.5 ± 4.1 µM | ΔGF−I,100μM (free to intermediately bound) ([4]; 37 °C, 100 μM FABP4): -6.79 ± 0.22 kcal/mol | ΔGF−T,100μM (free to totally bound) ([4]; 37 °C, 100 μM FABP4): -6.79 ± 0.22 kcal/mol | Kd ([4]; 37 °C, 100 μM FABP4, 20 μM spin probe, read-out: KD,T,100μM (calculated, totally bound)): 16.7 ± 0.44 µM | aiso, component (1) free ([4]; 37 °C, EPR simulation): 44.1 MHz | aiso, component (2) intermediately bound ([4]; 37 °C, EPR simulation): 44.7–48.0 MHz | τc,iso, component (1) free ([4]; 37 °C, EPR simulation): 0.05–0.13 ns | τc,iso, component (2) intermediately bound ([4]; 37 °C, EPR simulation): 4.0–5.8 ns | τc,iso, component (3) strongly bound ([4]; 37 °C, EPR simulation): 22.2 ns | Hill coefficient n [4, 9]: 1.454 and > 1 | Hill fit k ([4]; Hill fit, totally bound (T), x = c(FABP4)/c(5/16-DSA)): 0.797 ± 0.047 | Hill fit Vmax [4, 10]: 92.29 ± 2.876 | Kd [4, 11]: 17.8 ± 0.2 µM
Structure (SMILES): CCC1(CCCCCCCCCCCCCCC(=O)O)OCC(C)(C)N1[O] (stereo not drawn) [16-DSA, 16-DOXYL stearic acid]
